Tests used:
[1] = biological target: T1, human recombinant integrin αvβ3 (Homo sapiens, UniProt P05106+P06756); experiment: Integrin receptor affinity ELISA (vitronectin-coated plates); assay type: binding; conditions: tested in duplicate; read-out: Receptor affinity (IC50)
T1 construct: purchased R&D Systems

HT-29 cells = experiment: Tumor uptake by optical imaging, subcutaneous human colorectal cancer model; assay type: in vivo, Athymic nude mice; conditions: iv 1 nmol, tumor vs muscle
Method: Parallel experiments were performed in an animal model of human colorectal cancer (subcutaneous), using HT-29 cells, expressing low levels of integrin receptors. Briefly, the human colorectal adenocarcinoma cells HT-29 (ATCC, HTB-38) were cultured in McCoy's 5A medium supplemented with 10% foetal bovine serum, 2 mM glutamine, 100 IU/mL penicillin and 100 μg/mL streptomycin. Male Athymic nude mice, 4-6 weeks of age (Envigo), underwent subcutaneous implantation (right flank) of about 5 million cells suspended in 0.1 mL of serum-free medium. Mice were housed 4 per cage with food and water ad libitum. […] Then, AIN-76a rodent diet irradiated (Research Diets), a special diet that reduces auto-fluorescence, was used up to the end of the experiments. Tumor growth was monitored by longitudinal assessments using a caliper up to the target size of 300-600 mm^3 (3-4 weeks after cell implantation). […]
(§1) In vivo imaging was performed under gas anesthesia (Sevofluorane 6-8% in oxygen). […] Regions of interest (ROIs) were drawn on the tissues of interest for each fluorescence image at every time point to evaluate signal intensity (expressed as Average Radiant Efficiency). The ratio between the fluorescence signal in the tumor and in the muscle (background tissue) was then calculated to assess the contrast.

[2] = system: WM-266-4 human melanoma cells; experiment: Cell uptake by flow cytometry (FACS); assay type: cell-based
Method: The human melanoma cell line WM-266-4 (ATCC, CRL-1676) was used as in vitro model to assess the cell uptake of representative integrin-binding Compounds 1 and 3, based on the high expression of the integrin receptors, particularly αvβ3, on the membrane of these cells (Capasso et al., PlosOne 2014).
Adherent cells at about 70% confluence were incubated with the compounds 1 or 3 (1 μM) for 2h at 37° C. (5% CO2) in presence of Dulbecco's Modified Eagle's Medium (DMEM) supplemented with 10% FBS, 2 mM glutamine, 100 IU/mL penicillin and 100 μg/mL streptomycin. After two washing steps with PBS, cells were detached using 0.1 mM EDTA in PBS, centrifuged and suspended in buffer (PBS, 0.5% BSA, 0.1% NaN3) for flow cytometry experiments. Fluorescence Activated Cell Sorting (FACS) was used to detect the fluorescence signal within the cells, as measure of cell uptake. Samples were excited with an Argon laser and the emission detected using a 670 nm longpass filter. Values of fluorescence intensity were obtained from the histogram statistic produced by the instrument software.
The residual internalization was calculated by considering the value of fluorescence intensity in absence of the competitor as 100%.
Furthermore, to assess the effect of biological fluids on the cell uptake, parallel experiments were performed incubating the cells with a compounds of the invention in presence of human serum from male AB plasma (Sigma Aldrich, H4522) or human albumin (Sigma Aldrich, A9511). The residual internalization was calculated by considering the value of fluorescence intensity in absence of the serum as 100%. Such uptake assessment also represents an indication of the percentage of compound which is sequestered by the plasma proteins, in particular albumin, when it diffuses through the vascular compartment before reaching the tissue of interest and the particular targeted receptor.

[3] = Optical properties: excitation/emission maxima and absolute fluorescence quantum yield; assay type: physicochemical
Method: Analysis were performed with a Waters Atlantis dC18 5 μm, 4.6×150 mm column using a gradient of phase A CH3COONH4 10 mM and phase B acetonitrile. Measured mass/charge ratios are listed for each compound. A dual-beam UV-VIS spectrophotometer (Lambda 40, Perkin Elmer) was used to determine the absorbance (Abs) of the compounds of the invention. […] The measurements were performed using an excitation wavelength at maximum absorbance of different dyes, and the sample was excited with a […] Xenon Light Source. Detection was performed by photomultiplier tubes (PMT-NIR) cooled detector or by TBX-04 detector. Dye solutions were carefully prepared to have an absorbance lower than 0.1 (optical densities) to minimize re-absorption phenomena. The compounds of the invention have been characterized in terms of their optical properties in vitro in aqueous medium (i.e., water/PBS pH 7.4) and in a clinical chemistry control serum (Seronorm, Sero SA), mimicking the chemical composition and optical properties of human serum. All dye or dye-conjugate solutions were freshly prepared.

U87MG cells = experiment: Tumor uptake by optical imaging, subcutaneous human glioblastoma model; assay type: in vivo, Balb/c nu/nu mice; conditions: iv 1 nmol, 1-2 hours after administration, tumor vs muscle
Method: Tumor uptake experiments were carried out in an animal model of human glioblastoma (subcutanous) overexpressing the integrin receptors, particularly αvβ3. Briefly, human glioblastoma U87MG cells (ATCC, HTB-14) were cultured in Eagle's Minimum Essential Medium (EMEM) supplemented with 10% Fetal Bovine Serum (FBS), 2 mM glutamine, 100 IU/mL penicillin, 100 μg/mL streptomycin. Male Balb/c nu/nu mice, 4-6 weeks of age (Charles River Laboratories), underwent subcutaneous implantation (right flank) of about 10 million cells suspended in 0.1 mL of EMEM. Mice were housed 4 per cage with food and water ad libitum. […] Then, AIN-76a rodent diet irradiated (Research Diets), a special diet that reduces auto-fluorescence, was used up to the end of the experiments. Tumor growth was monitored by longitudinal assessments using a caliper up to the target size of 300-600 mm^3 (3-4 weeks after cell implantation). […]
as §1

IC50 [1]: 2.96 ± 0.49 nM
Compound: CC(CC[N+]1=C(/C=C/C=C/C=C/C=C2/N(CCCCCC(=O)NCCCC[C@@H]3NC(=O)C(Cc4ccccc4)NC(=O)[C@H](CC(=O)O)NC(=O)CNC(=O)[C@H](CCCNC(=N)N)NC3=O)c3ccc(C(=O)NCC(O)C(O)C(O)C(O)CO)cc3C2(C)C)C(C)(C)c2cc(C(=O)NCC(O)C(O)C(O)C(O)CO)ccc21)S(=O)(=O)[O-] (stereo partly shown) [Compound 1]
Tumor-to-background ratio (TBR) (HT-29 cells): 1.2-1.5
Residual uptake in the presence of 4% HSA ([2]; 1 μM, 2h at 37° C.): 70%
Residual cell uptake in presence of human serum ([2]; 1 μM, 2h at 37° C., uptake without serum = 100%): 80%
Residual uptake in the presence of c(RGDfK) as competitor ([2]; 100 μM c(RGDfK), uptake without competitor = 100%): 10%
Max Em ([3]; PBS pH 7.4): 786 nm
Max Ex ([3]; PBS pH 7.4): 757 nm
Φ (absolute fluorescence quantum yield) ([3]; PBS pH 7.4): 9.8%
Φ (absolute fluorescence quantum yield) ([3]; Seronorm control serum): 13.0%
Tumor-to-background ratio (TBR) (U87MG cells): 2-2.5
